From patent US9567342B2, “Certain protein kinase inhibitors” (SHANGHAI FOCHON PHARMACEUTICAL CO., LTD., priority 2012, dated 2017)

What follows are compounds tested on SU-DHL-1 cells (assay: Inhibition activity of cell proliferation (CCK-8 assay)). Conditions: Homo sapiens, 72 h exposure.
Format: cell-based
Method: SU-DHL-1 cells were seeded in 96-well tissue culture plates. On the next day, cells were exposed to various concentrations of compounds and further cultured for 72 h. Cell proliferation was then determined using Cell Counting Kit-8 [(CCK-8), Dojindo]assay. Briefly, add 10 μL of the CCK-8 solution to each well of the plate. Incubate the plate for 1-4 hours in the incubator. Measure the absorbance at 450 nm using a multi-well spectrophotometer (SpectraMAX 190, Molecular Devices). The inhibition rate (%) was calculated using the following equation: [1−(A450 Compound/A450 Control)]×100%. IC50 values were calculated according to inhibition curve by four-parameter fit.
For `COCCN1CCC(c2c(C)cc(Nc3ncc(Cl)c(Nc4ccccc4S(=O)(=O)C(C)C)n3)c3c2C[C@@H](C)O3)CC1` [Example 32, (R)-5-chloro-N-4-(2-(isopropylsulfonyl)phenyl)-N-2-(4-(1-(2-methoxyethyl)piperidin-4-yl)-2,5-dimethyl-2,3-dihydrobenzofuran-7-yl)pyrimidine-2,4-diamine], the IC50 was 19.3 nM. `Cc1cc(Nc2ncc(Cl)c(Nc3ccccc3S(=O)(=O)C(C)C)n2)c2c(c1C1CCN(CCO)CC1)C[C@@H](C)O2` [Example 33, (R)-2-(4-(7-((5-chloro-4-((2-(isopropylsulfonyl)phenyl)amino)pyrimidin-2-yl)amino)-2,5-dimethyl-2,3-dihydrobenzofuran-4-yl)piperidin-1-yl)ethanol] was tested, and the IC50 was 11.8 nM. Compound `Cc1cc(Nc2ncc(Cl)c(Nc3ccccc3S(=O)(=O)C(C)C)n2)c2c(c1C1CCN(CCO)CC1)C[C@H](C)O2` [Example 34, (S)-2-(4-(7-((5-chloro-4-((2-(isopropylsulfonyl)phenyl)amino)pyrimidin-2-yl)amino)-2,5-dimethyl-2,3-dihydrobenzofuran-4-yl)piperidin-1-yl)ethanol] has an IC50 of 12.3 nM. For `Cc1cc(Nc2ncc(Cl)c(Nc3ccccc3S(=O)(=O)C(C)C)n2)c2c(c1C1CCN(C[C@@H](C)O)CC1)C[C@H](C)O2` [Example 35, (R)-1-(4-((S)-7-((5-chloro-4-((2-(isopropylsulfonyl)phenyl)amino)pyrimidin-2-yl)amino)-2,5-dimethyl-2,3-dihydrobenzofuran-4-yl)piperidin-1-yl)propan-2-ol], the IC50 was 36.9 nM. Compound `Cc1cc(Nc2ncc(Cl)c(Nc3ccccc3S(=O)(=O)C(C)C)n2)c2c(c1C1CCN(C[C@H](C)O)CC1)C[C@H](C)O2` [Example 36, (S)-1-(4-((S)-7-((5-chloro-4-((2-(isopropylsulfonyl)phenyl)amino)pyrimidin-2-yl)amino)-2,5-dimethyl-2,3-dihydrobenzofuran-4-yl)piperidin-1-yl)propan-2-ol] has an IC50 of 26.2 nM. Compound `Cc1cc(Nc2ncc(Cl)c(Nc3ccccc3S(=O)(=O)C(C)C)n2)c2c(c1C1CCN(C(=O)CO)CC1)C[C@@H](C)O2` [Example 37, (R)-1-(4-(7-((5-chloro-4-((2-(isopropylsulfonyl)phenyl)amino)pyrimidin-2-yl)amino)-2,5-dimethyl-2,3-dihydrobenzofuran-4-yl)piperidin-1-yl)-2-hydroxyethanone] has an IC50 of 12.5 nM. `Cc1cc(Nc2ncc(Cl)c(Nc3ccccc3S(=O)(=O)C(C)C)n2)c2c(c1C1CCN(C(=O)[C@H](C)O)CC1)C[C@@H](C)O2` [Example 38, (S)-1-(4-((R)-7-((5-chloro-4-((2-(isopropylsulfonyl)phenyl)amino)pyrimidin-2-yl)amino)-2,5-dimethyl-2,3-dihydrobenzofuran-4-yl)piperidin-1-yl)-2-hydroxypropan-1-one] was tested, and the IC50 was 13.6 nM. Compound `Cc1cc(Nc2ncc(Cl)c(Nc3ccccc3S(=O)(=O)C(C)C)n2)c2c(c1C1CCN(C(=O)[C@@H](C)O)CC1)C[C@@H](C)O2` [Example 39, (R)-1-(4-((R)-7-((5-chloro-4-((2-(isopropylsulfonyl)phenyl)amino)pyrimidin-2-yl)amino)-2,5-dimethyl-2,3-dihydrobenzofuran-4-yl)piperidin-1-yl)-2-hydroxypropan-1-one] has an IC50 of 10.3 nM. `COC(=O)N1CCC(c2c(C)cc(Nc3ncc(Cl)c(Nc4ccccc4S(=O)(=O)C(C)C)n3)c3c2C[C@H](C)O3)CC1` [Example 40, (S)-methyl 4-(7-((5-chloro-4-((2-(isopropylsulfonyl)phenyl)amino)pyrimidin-2-yl)amino)-2,5-dimethyl-2,3-dihydrobenzofuran-4-yl)piperidine-1-carboxylate] gave an IC50 of 120 nM. Compound `CCOC(=O)CN1CCC(c2c(C)cc(Nc3ncc(Cl)c(Nc4ccccc4S(=O)(=O)C(C)C)n3)c3c2C[C@H](C)O3)CC1` [Example 41, (S)-ethyl 2-(4-(7-((5-chloro-4-((2-(isopropylsulfonyl)phenyl)amino)pyrimidin-2-yl)amino)-2,5-dimethyl-2,3-dihydrobenzofuran-4-yl)piperidin-1-yl)acetate] has an IC50 of 43.2 nM.
